Results from publication PMC3163380, “Design, Synthesis and Biological Evaluation of Novel Pyrimido[4,5-d]pyrimidine CDK2 Inhibitors as Anti-Tumor Agents” (Scientia Pharmaceutica, 2011).

Assays:
EKVX = assay: NCI primary anti-cancer assay (SRB), EKVX; assay type: cell-based; conditions: Homo sapiens; 10^−5M; Non-Small Cell Lung Cancer EKVX; read-out: Growth Inhibition %
Method: (§1) Evaluation of anti-cancer activities on pyrimido[4,5-d]pyrimidine derivatives were performed at the National Cancer Institute (NCI) USA. First the newly synthesized compounds have been evaluated in primary anti-cancer assay at 10^−5M concentration against 60 human tumor cell lines then the active compounds were tested at 5 different concentrations against the same 60 human tumor cell lines. The biological data for the newly synthesized compounds are compiled in table 2
(§2) The cytotoxic activity was measured in vitro for the newly synthesized compounds using the SulfoRhodamine-B stain (SRB) assay using the method of Skehan. Cells were plated in 96-multiwell microtiter plate (10^4 cells/well) for 24 h before treatment with the compound(s) to allow attachment of cell to the wall of the plate. Tested compounds were dissolved in DMSO and diluted with saline to the appropriate volume. Triplicate wells were prepared for each individual dose. Monolayer cells were incubated with the compound(s) for 48 h at 37 °C and in atmosphere of 5% CO2. After 48 h, cells were fixed, washed, and stained for 30 min with 0.4% (wt/vol) with SRB dissolved in 1% acetic acid. Unbound dye was removed by four washes with 1% acetic acid, and attached stain was recovered with Tris-EDTA buffer. Color intensity was measured in an ELISA reader. […]

HL-60(TB) = assay: NCI primary anti-cancer assay (SRB), HL-60(TB); assay type: cell-based; conditions: Homo sapiens; 10^−5M; Leukemia HL-60(TB); read-out: Growth Inhibition %
Method: as §1
(§3) The cytotoxic activity was measured in vitro for the newly synthesized compounds using the SulfoRhodamine-B stain (SRB) assay using the method of Skehan. Cells were plated in 96-multiwell microtiter plate (10^4 cells/well) for 24 h before treatment with the compound(s) to allow attachment of cell to the wall of the plate. Tested compounds were dissolved in DMSO and diluted with saline to the appropriate volume. Triplicate wells were prepared for each individual dose. Monolayer cells were incubated with the compound(s) for 48 h at 37 °C and in atmosphere of 5% CO2. After 48 h, cells were fixed, washed, and stained for 30 min with 0.4% (wt/vol) with SRB dissolved in 1% acetic acid. Unbound dye was removed by four washes with 1% acetic acid, and attached stain was recovered with Tris-EDTA buffer. Color intensity was measured in an ELISA reader. The relation between surviving fraction and drug concentration is plotted to get the survival curve for tumor cell line after the specified time.

SF-539 = assay: NCI primary anti-cancer assay (SRB), SF-539; assay type: cell-based; conditions: Homo sapiens; 10^−5M; CNS Cancer SF-539; read-out: Growth Inhibition %
Method: as §1, §3

HOP-92 = assay: NCI primary anti-cancer assay (SRB), HOP-92; assay type: cell-based; conditions: Homo sapiens; 10^−5M; Non-Small Cell Lung Cancer HOP-92; read-out: Growth Inhibition %
Method: as §1, §3

RPMI-8226 = assay: NCI primary anti-cancer assay (SRB), RPMI-8226; assay type: cell-based; conditions: Homo sapiens; 10^−5M; Leukemia RPMI-8226; read-out: Growth Inhibition %
Method: as §1, §3

HS 578T = assay: NCI primary anti-cancer assay (SRB), HS 578T; assay type: cell-based; conditions: Homo sapiens; 10^−5M; Breast Cancer HS 578T; read-out: Growth Inhibition %
Method: as §1, §3

K-562 = assay: NCI primary anti-cancer assay (SRB), K-562; assay type: cell-based; conditions: Homo sapiens, K562; 10^−5M; Leukemia K-562; read-out: Growth Inhibition %
Method: as §1, §3

[1] = test system: 60 human tumor cell lines; assay: NCI primary anti-cancer assay, summary over tumor cell lines; assay type: cell-based; conditions: 10^−5M, Non-small cell lung cancer, Ovarian cancer, Leukemia and Melanoma lines / different tumor cell lines, read-out: growth inhibitions (range over cell lines)
Method: as §1, §3

MCF7 = assay: NCI primary anti-cancer assay (SRB), MCF7; assay type: cell-based; conditions: Homo sapiens; 10^−5M; Breast Cancer MCF7; read-out: Growth Inhibition %
Method: as §1, §2

CDK4/CyclinD = CDK4/CyclinD (Homo sapiens, UniProt P11802); assay: CDK4/CyclinD inhibition assay; assay type: biochemical; conditions: mean of at least two independent experiments
Chain of CDK4/CyclinD (P11802 whole entry, species assumed): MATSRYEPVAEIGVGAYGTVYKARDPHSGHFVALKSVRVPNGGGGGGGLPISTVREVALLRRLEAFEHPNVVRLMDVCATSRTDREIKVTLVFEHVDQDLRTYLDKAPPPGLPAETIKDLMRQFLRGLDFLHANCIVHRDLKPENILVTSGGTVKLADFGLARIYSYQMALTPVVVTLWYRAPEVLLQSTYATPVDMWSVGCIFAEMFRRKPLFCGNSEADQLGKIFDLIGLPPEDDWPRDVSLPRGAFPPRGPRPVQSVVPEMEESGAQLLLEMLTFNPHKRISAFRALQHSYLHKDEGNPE
Chain of CDK4/CyclinD (P24385 whole entry partner, species assumed): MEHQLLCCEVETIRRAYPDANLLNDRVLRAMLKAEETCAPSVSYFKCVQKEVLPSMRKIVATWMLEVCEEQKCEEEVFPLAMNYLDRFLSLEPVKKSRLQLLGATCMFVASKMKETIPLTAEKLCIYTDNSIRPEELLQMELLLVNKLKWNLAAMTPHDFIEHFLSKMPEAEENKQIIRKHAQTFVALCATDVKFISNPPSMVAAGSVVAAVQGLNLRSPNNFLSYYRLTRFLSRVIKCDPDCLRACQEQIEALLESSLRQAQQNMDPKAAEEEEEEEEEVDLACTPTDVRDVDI

MDA-MB-231/ATCC = assay: NCI primary anti-cancer assay (SRB), MDA-MB-231/ATCC; assay type: cell-based; conditions: Homo sapiens; 10^−5M; Breast Cancer MDA-MB-231/ATCC; read-out: Growth Inhibition %
Method: as §1, §3

[2] = target: T1, human EGFR tyrosine kinase domain (Homo sapiens, UniProt P00533); assay: EGFR tyrosine kinase inhibition assay; assay type: biochemical; conditions: mean of at least two independent experiments
T1 construct: C-terminal human EGFR tyrosine kinase domain
T1 sequence (P00533 712-979 limits assumed): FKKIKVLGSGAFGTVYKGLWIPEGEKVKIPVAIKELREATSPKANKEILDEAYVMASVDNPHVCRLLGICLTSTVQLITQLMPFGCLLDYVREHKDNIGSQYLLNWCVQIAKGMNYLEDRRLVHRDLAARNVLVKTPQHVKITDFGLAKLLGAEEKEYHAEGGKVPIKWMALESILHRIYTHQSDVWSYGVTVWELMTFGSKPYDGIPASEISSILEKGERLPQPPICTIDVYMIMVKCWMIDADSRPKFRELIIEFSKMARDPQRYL

MOLT-4 = assay: NCI primary anti-cancer assay (SRB), MOLT-4; assay type: cell-based; conditions: Homo sapiens; 10^−5M; Leukemia MOLT-4; read-out: Growth Inhibition %
Method: as §1, §3

CDK2/CyclinA = target: T2, CDK2/CyclinA (Homo sapiens, UniProt P24941); assay: CDK2/cyclinA enzymatic activity inhibition assay (32P-ATP, histone H1); assay type: biochemical; conditions: mean of at least two independent experiments
T2 construct: hexa-histidine (N); made in house; host or cells: sf21 insect cells (baculovirus)

UO-31 = assay: NCI primary anti-cancer assay (SRB), UO-31; assay type: cell-based; conditions: Homo sapiens; 10^−5M; Renal Cancer UO-31; read-out: Growth Inhibition %
Method: as §1, §3

BT-549 = assay: NCI primary anti-cancer assay (SRB), BT-549; assay type: cell-based; conditions: Homo sapiens; 10^−5M; Breast Cancer BT-549; read-out: Growth Inhibition %
Method: as §1, §2

IGROV1 = assay: NCI primary anti-cancer assay (SRB), IGROV1; assay type: cell-based; conditions: Homo sapiens, IGROV-1; 10^−5M; Ovarian Cancer IGROV1; read-out: Growth Inhibition %
Method: as §1, §3

OVCAR-8 = assay: NCI primary anti-cancer assay (SRB), OVCAR-8; assay type: cell-based; conditions: Homo sapiens; 10^−5M; Ovarian Cancer OVCAR-8; read-out: Growth Inhibition %
Method: as §1, §3

UACC-257 = assay: NCI primary anti-cancer assay (SRB), UACC-257; assay type: cell-based; conditions: Homo sapiens; 10^−5M; Melanoma UACC-257; read-out: Growth Inhibition %
Method: as §1, §3

A549/ATCC = assay: NCI primary anti-cancer assay (SRB), A549/ATCC; assay type: cell-based; conditions: Homo sapiens; 10^−5M; Non-Small Cell Lung Cancer A549/ATCC; read-out: Growth Inhibition %
Method: as §1, §3

## Cc1nc(Nc2ccc(NC(=S)Nc3ccccc3)cc2)nc2nc(NCc3ccccc3)[nH]c(=O)c12 [Compound 7b, 1-(4-{[7-(Benzylamino)-4-methyl-5-oxo-5,6-dihydropyrimido[4,5-d]pyrimidin-2-yl]amino}-phenyl)-3-phenylthiourea]
EKVX
  inhibition at 10 µM: 28.5%
HL-60(TB)
  inhibition at 10 µM: 24.5%
SF-539
  inhibition at 10 µM: 42%
HOP-92
  inhibition at 10 µM: 20.8%
RPMI-8226
  inhibition at 10 µM: 50.2%
HS 578T
  inhibition at 10 µM: 33.6%
K-562
  inhibition at 10 µM: 53.7%
[1]
  inhibition at 10 µM: 50 to 70%
MCF7
  inhibition at 10 µM: 43.5%
CDK4/CyclinD
  IC50: 4.85 µM
MDA-MB-231/ATCC
  inhibition at 10 µM: 31.5%
[2]
  IC50: > 10 µM
other
  melting point: > 300 °C
MOLT-4
  inhibition at 10 µM: 32.9%
CDK2/CyclinA
  IC50: 0.86 µM

## Cc1nc(Nc2ccc(NC(=S)Nc3ccccc3)cc2)nc2nc(Nc3ccc(S(=O)(=O)O)cc3)[nH]c(=O)c12 [Compound 7h, 4-{[5-Methyl-4-oxo-7-({4-[(phenylcarbamothioyl)amino]phenyl}amino)-3,4-dihydropyrimido[4,5-d]pyrimidin-2-yl]amino}benzenesulfonic acid]
HL-60(TB)
  inhibition at 10 µM: 29%
HOP-92
  inhibition at 10 µM: 24.3%
RPMI-8226
  inhibition at 10 µM: 52.5%
[1]
  inhibition at 10 µM: 50 to 70%
CDK4/CyclinD
  IC50: > 10 µM
  IC50 CDK4/CyclinD: no activity
UO-31
  inhibition at 10 µM: 21.1%
BT-549
  inhibition at 10 µM: 39%
[2]
  IC50: > 10 µM
other
  melting point: > 300 °C
IGROV1
  inhibition at 10 µM: 28%
MOLT-4
  inhibition at 10 µM: 20.8%
CDK2/CyclinA
  IC50: 6 µM
OVCAR-8
  inhibition at 10 µM: 50.2%

## O=c1[nH]c(NCc2ccccc2)nc2nc(Nc3ccc(NC(=S)Nc4ccccc4)cc3)nc(-c3ccc(O)cc3O)c12 [Compound 7a, 1-(4-{[7-(Benzylamino)-4-(2,4-dihydroxyphenyl)-5-oxo-5,6-dihydropyrimido[4,5-d]pyrimidin-2-yl]amino}phenyl)-3-phenylthiourea]
EKVX
  inhibition at 10 µM: 36.8%
RPMI-8226
  inhibition at 10 µM: 22.6%
UACC-257
  inhibition at 10 µM: 60.3%
[1]
  inhibition at 10 µM: 50 to 70%
CDK4/CyclinD
  IC50: 3.33 µM
UO-31
  inhibition at 10 µM: 21.4%
[2]
  IC50: > 10 µM
other
  melting point: > 300 °C
IGROV1
  inhibition at 10 µM: 29.7%
MOLT-4
  inhibition at 10 µM: 36.7%
CDK2/CyclinA
  IC50: 0.31 µM
A549/ATCC
  inhibition at 10 µM: 58.4%
